Drawing on PubChem BioAssay (NCI), this text covers GI50 and TGI for 28 molecules.

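All cell lines were grown in 96-well plates and treated with compound for 48 hours. At the GI50, growth is halved. TGI: total growth inhibition.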

Assay in all cases: NCI-60 cell line screen, 48 h
Test [1] concerns CCRF-CEM leukemia.
The test system of test [2] is SF-268 CNS.
For test [3], the system named is SF-295 CNS.
Test [4] concerns MDA-MB-231 breast.
Test [5] concerns PC-3 prostate.
Test [6] has as its system SK-MEL-28 melanoma.
Test [7] has as its system UACC-62 melanoma.
In test [8] the test system is ACHN renal.
In test [9] the test system is NCI-H226 lung.
Test [10] deals with MOLT-4 leukemia.

For the molecule `O=C(N/N=C/c1ccc(O)cc1O)c1ccc(Nc2ccnc(C(F)(F)F)c2)cc1`, the GI50 in test [1] was 0.0913 µM; in test [2], 0.156 µM; in test [4], 5.83 µM; in test [5], > 45.1 µM; in test [6], 7.5 µM; in test [7], 0.0485 µM. For the same molecule, the GI50 in test [8] was 31.8 µM; in test [9], 26.4 µM. Moreover, the TGI in [1] is > 100 µM; in [2] it was 33.3 µM; in test [3] it was 23.3 µM; in [4], 57.2 µM; in test [5], > 100 µM; in test [6], > 100 µM. Also, the TGI in test [7], in [8] and in [9] was > 100 µM each time.

As to `COc1cc2c(cc1OC)[C@@H](C(O)c1ccccc1)NCC2` (stereo not given in full), the TGI in test [1], in test [2], in test [3], in [7], in test [8] and in test [10] was > 100 µM throughout. Also, the TGI in test [9] is > 100 µM.

With `CC[O-].CC[O-].O=Nc1ccc2cc([O-])ccc2c1.O=Nc1ccc2cc([O-])ccc2c1.[Ti+4]`, the GI50 was 2.71 µM in test [1]; 2.29 µM in test [2]; 1.8 µM in test [3]; 1.81 µM in [6]; 2.44 µM in test [7]; 1.58 µM in [8]. Further, the GI50 in [9] is 1.67 µM. Besides, the TGI in [1] is > 27.3 µM; in test [2], 5.78 µM; in test [3], 10.5 µM; in [6], 3.4 µM; in [8], 2.96 µM; in test [9], 3.86 µM.

With `c1cncc(C(Nc2cccc3cccnc23)Nc2cccc3cccnc23)c1`, the TGI in [1], in [2], in test [3], in test [4], in [5] and in test [7] was > 100 µM throughout. In addition, the TGI in test [8] is > 100 µM.

Take `COc1ccc(/C=C2\CNC/C(=C\c3ccc(OC)cc3)C2=O)cc1`: the TGI is 44.8 µM in [1]; 79.2 µM in test [2]; > 100 µM in [3]; > 100 µM in test [6]; > 100 µM in test [7]; > 100 µM in test [8]. The TGI in test [10] and in [9] was > 100 µM each time.

Regarding `COc1ccc(C=NC23CC4CC(CC(C4)C2)C3)cc1`, the TGI in test [1], in [2], in [3], in test [6], in test [7] and in test [8] was > 100 µM throughout. Also, the TGI in test [10] and in [9] was > 100 µM in each case.

For the molecule `CN(C)c1ccc(/C=C2\N=C(c3ccc(N)cc3)OC2=O)cc1`, the TGI in [1], in [2], in test [3], in test [6], in test [7] and in test [8] was > 100 µM throughout. Moreover, the TGI in test [10] and in [9] was > 100 µM in each case.

`O=C(c1cc(-c2cc3c(cc2C(=O)N2Cc4ccccc4C[C@H]2CN2CCOCC2)OCO3)n2c1CCCC2)N(c1ccccc1)c1ccc(O)cc1`: the GI50 in test [1] was 3.34 µM; in [2], 7.65 µM; in [3], 5.14 µM; in test [4] it was 10.9 µM; in test [5], 2.99 µM; in [6], 11.4 µM. In addition, the GI50 was 8.62 µM in [7], 9.36 µM in [8] and 10.1 µM in [9]. Besides, the TGI in [1] is > 100 µM; in test [2] it was > 100 µM; in [3], > 100 µM; in test [4], 53.3 µM; in test [5], > 100 µM; in [6], > 100 µM. Also, the TGI is > 100 µM in test [7], > 100 µM in [8] and 56 µM in [9].

In the case of `CCN(CC)C(=S)N/N=C(\C)c1ccccc1O`, the TGI in [1] is 78 µM; in [2], > 100 µM; in [3] it was > 100 µM; in test [6], > 100 µM; in test [7], > 100 µM; in test [8] it was 61.4 µM. Also, the TGI in test [10] is > 100 µM; in test [9], 56.8 µM.

`COc1ccc2nc(NC(=O)C(=O)CC(=O)c3ccc(Cl)cc3)sc2c1`: the TGI in test [1], in test [2], in [3], in test [6], in [7] and in [8] was > 100 µM in each case. Also, the TGI in test [10] and in [9] was > 100 µM throughout.

Regarding `O=[N+]([O-])c1cc(Br)cc2c1[nH]c1ccc(Br)cc12`, the GI50 is 10.2 µM in [2]; 2.78 µM in [3]; 2.71 µM in [4]; 10.2 µM in test [5]; 39 µM in test [6]; 22.1 µM in test [7]. Also, the GI50 is 3.31 µM in test [8] and 3.24 µM in test [9]. Besides, the TGI in [2] was 45.9 µM; in test [3], 9.35 µM; in test [4], > 100 µM; in [5] it was > 100 µM; in test [6] it was > 100 µM; in [7] it was > 100 µM. Further, the TGI was found to be 19.9 µM in [8] and 21.9 µM in [9].

For `Cc1c(C(=O)CC(=O)C(=O)Nc2cccc(C(F)(F)F)c2)[n+](=O)c2ccccc2n1[O-]`, the TGI amounted to 7.24 µM in [1]; 14.4 µM in test [2]; 23.4 µM in test [3]; 27.2 µM in test [6]; 7.55 µM in [7]; 15.9 µM in [8]. Moreover, the results for the TGI in [10] and in test [9] were 7.56 µM and 80.8 µM, respectively.

As for `CC(C)(C)C(=O)C(c1ccc(-c2cscn2)cc1)c1ccc(-c2cscn2)cc1`, the TGI was > 100 µM in test [1]; 97.5 µM in test [2]; 84.5 µM in test [3]; > 100 µM in test [6]; > 71.4 µM in test [7]; > 100 µM in [8]. The TGI was > 100 µM in test [10] and > 78.7 µM in test [9].

Consider `CC(=O)O[C@@H]1CC(C)C2CC2C2=C(C(O)OC2O)[C@@H]1C(C)CCC=C(C)C` (stereo not given in full), for which the TGI was 51.9 µM in test [1]; 65.5 µM in [2]; > 100 µM in test [6]; 67.3 µM in [7]; 90.5 µM in test [8]; 54.5 µM in test [10]. The molecule further had a TGI in [9] of 36.5 µM.

`Cc1cc2c(c(C#N)c1C)NC(=O)C(CC(=O)O)C2=O` (stereo not given): the TGI in test [1], in test [2], in test [3], in test [6], in test [7] and in test [8] was > 100 µM in each case. For the same molecule, the TGI in test [10] and in test [9] was > 100 µM in each case.

Consider `Cc1cccc(C)c1NC(=O)C(=O)CC(=O)CO`, for which the TGI in test [1], in [2], in [3], in test [6], in test [7] and in test [8] was > 100 µM each time. In addition, the TGI in [10] and in test [9] was > 100 µM throughout.

As for `O=C(c1ccc(NCN2C(=O)CCC2=O)cc1)c1ccc(NCN2C(=O)CCC2=O)cc1`, the TGI in [1], in test [2], in [3], in [6], in test [7] and in [8] was > 100 µM in each case. For the same molecule, the TGI in test [10] was > 100 µM.

On to `O=C(O)c1ccc([N+](=O)[O-])c2c(=O)c3ccccc3[nH]c12`, for which the TGI in [1], in [2], in test [3], in [7], in test [8] and in test [10] was > 100 µM in each case.

With `C=CCN=C1N=C(CC(=O)OCC)CS1`, the TGI in test [1], in test [2], in test [3], in test [6], in [7] and in test [8] was > 100 µM throughout. Besides, the TGI in test [9] is > 100 µM.

With `Cc1ccc(C2=Nc3ccccc3NC(=O)C2)cc1`, the TGI in [1], in test [2], in [3], in test [6], in [7] and in [8] was > 100 µM throughout. In addition, the TGI in test [10] and in test [9] was > 100 µM throughout.

Take `Cc1nc(Nc2ccc(F)c(Cl)c2)sc1C(=O)O`: the GI50 in [1] is 3.01 µM; in test [2], 1.76 µM; in test [3] it was 1.49 µM; in test [5] it was 1.75 µM; in test [6], 1.77 µM; in test [7] it was 1.17 µM. For the same molecule, the GI50 in test [8] was 1.52 µM; in test [9], 1.77 µM. Further, the TGI is > 100 µM in test [1]; 4.36 µM in [2]; 3.15 µM in [3]; 4.8 µM in test [5]; 3.68 µM in test [6]; 2.62 µM in [7]. The TGI in test [8] is 3.24 µM; in test [9] it was 5.37 µM.

With `CNS(=O)(=O)NN(C)S(=O)(=O)c1ccc(Br)cc1`, the TGI in test [1], in [3], in test [7], in test [8], in [10] and in test [9] was > 100 µM in each case.

As to `CC(=O)OC[C@@H]1[C@H]2CC(=O)O[C@H]2C[C@H]1OC(C)=O`, the TGI in [1], in test [2], in test [3], in [6], in [7] and in test [8] was > 100 µM throughout. Moreover, the TGI in test [10] was > 100 µM.

Take `O=C1NC2(O)c3ccccc3C(=O)C2(O)N1c1ccccc1` (stereo not given): the TGI in test [1], in test [2], in test [3], in test [6], in [7] and in test [10] was > 100 µM throughout.

For `CCOC(=O)NC(=O)c1cn(CCCOC(=O)CCCCCCCCC(=O)OCCCn2cc(C(=O)NC(=O)OCC)c(=O)[nH]c2=O)c(=O)[nH]c1=O`, the TGI amounted to 21.6 µM in [1]; 50.2 µM in [3]; 64.8 µM in test [6]; 69.1 µM in [7]; 42.1 µM in test [8]; 95.9 µM in [10].

Regarding `O=Cc1[nH]c2ccccc2c1Br`, the TGI in [1] is 99.2 µM; in test [2] it was 69.8 µM; in test [3] it was > 100 µM; in [6], 59.4 µM; in [7], 33.7 µM; in test [8], 82.7 µM. Further, the figures for the TGI in [10] and in [9] were 68.6 µM and > 100 µM, respectively.

Consider `O=C(N/N=C/c1cc(Br)cc(Br)c1[O-])c1ccccc1O.O=C(N/N=C/c1cc(Br)cc(Br)c1[O-])c1ccccc1O.[Mn+2]`, for which the GI50 in test [1] is 0.263 µM. Also, the TGI was determined as 6.42 µM in test [1]; 10.6 µM in [2]; 13.7 µM in test [3]; 13.8 µM in test [6]; 17.2 µM in [7]; 15.1 µM in test [8]. For the same molecule, the TGI amounted to 7.94 µM in [10] and 11 µM in test [9].

Consider `N#CC1(c2nc3ccccc3o2)C(=O)C(=O)N(c2ccc(Cl)c(Cl)c2)C(=O)C1=O`, for which the TGI in test [1], in [2], in test [3], in [6], in [8] and in [10] was > 100 µM in each case. Besides, the TGI in test [9] is > 100 µM.
